In patent US20250090699A1, “FAP TARGETING CYCLIC PEPTIDES AND CONJUGATES THEREOF” (Novartis AG, priority 2023, published 2025):
Structures can show the parent of a compound that is named as a salt. Starred links: 1 amine or outer side, 2 acyl side, 3 side chain; linkers in the order of their positions; H or OH if unused. Non-standard residues stand in square brackets, D forms with d. Residues, ends and D or L forms follow the SMILES beside them. *: point of attachment. F(4OEtNHDOTA-Lu) = lutetium complex of (S)-2,2',2''-(10-(2-((2-(4-(2-amino-2-carboxyethyl)phenoxy)ethyl)amino)-2-oxoethyl)-1,4,7,10-tetraazacyclododecane-1,4,7-triyl)triacetic acid (Phe with 4-O-ethylamino-DOTA-Lu), O=C([O-])CN1CCN(CC(=O)[O-])CCN(CC(=O)NCCOc2ccc(C[C@H](N[*:1])C(=O)[*:2])cc2)CCN(CC(=O)[O-])CC1.[Lu+3]; K(COpipzaa) = N6-(4-(carboxymethyl)piperazine-1-carbonyl)-L-lysine, O=C(NCCCC[C@H](N[*:1])C(=O)[*:2])N1CCN(CC(=O)[*:3])CC1; F(4OEtNHRDOTAGA-Ga) = Phe with 4-O-ethyl-NH-DOTAGA, Ga complex; F(4OEtNHRDOTAGA-Lu) = Phe with 4-O-ethyl-NH-DOTAGA, Lu complex; DOTA = O=C(O)CN1CCN(CC(=O)O)CCN(CC(=O)*)CCN(CC(=O)O)CC1; Trp(7-F) = N[C@@H](Cc1c[nH]c2c(F)cccc12)C(=O)O; 3Pal(6-NH2) = Nc1ccc(C[C@H](N)C(=O)O)cn1; AEF = NCCOc1ccc(C[C@H](N)C(=O)O)cc1; NMeF = CN[C@@H](Cc1ccccc1)C(=O)O; dHyp = O=C(O)[C@H]1C[C@H](O)CN1; Ahp(2) = CCCCC[C@H](N)C(=O)O

Assays:
[1] = molecular target: T1, mouse FAP (Mus musculus, UniProt P97321); assay: Enzymatic FAP competition assay (Z-Gly-Pro-AMC fluorescence), mouse FAP; type: biochemical; conditions: read-out: m. FAP, Enz., IC50
T1 construct: biotinylated His, Avi tag, mouse FAP (26-761, FAP-M82Q5); His; Avi tag (biotinylated); purchased AcroBiosystems FAP-M82Q5
T1 sequence (P97321 26-761): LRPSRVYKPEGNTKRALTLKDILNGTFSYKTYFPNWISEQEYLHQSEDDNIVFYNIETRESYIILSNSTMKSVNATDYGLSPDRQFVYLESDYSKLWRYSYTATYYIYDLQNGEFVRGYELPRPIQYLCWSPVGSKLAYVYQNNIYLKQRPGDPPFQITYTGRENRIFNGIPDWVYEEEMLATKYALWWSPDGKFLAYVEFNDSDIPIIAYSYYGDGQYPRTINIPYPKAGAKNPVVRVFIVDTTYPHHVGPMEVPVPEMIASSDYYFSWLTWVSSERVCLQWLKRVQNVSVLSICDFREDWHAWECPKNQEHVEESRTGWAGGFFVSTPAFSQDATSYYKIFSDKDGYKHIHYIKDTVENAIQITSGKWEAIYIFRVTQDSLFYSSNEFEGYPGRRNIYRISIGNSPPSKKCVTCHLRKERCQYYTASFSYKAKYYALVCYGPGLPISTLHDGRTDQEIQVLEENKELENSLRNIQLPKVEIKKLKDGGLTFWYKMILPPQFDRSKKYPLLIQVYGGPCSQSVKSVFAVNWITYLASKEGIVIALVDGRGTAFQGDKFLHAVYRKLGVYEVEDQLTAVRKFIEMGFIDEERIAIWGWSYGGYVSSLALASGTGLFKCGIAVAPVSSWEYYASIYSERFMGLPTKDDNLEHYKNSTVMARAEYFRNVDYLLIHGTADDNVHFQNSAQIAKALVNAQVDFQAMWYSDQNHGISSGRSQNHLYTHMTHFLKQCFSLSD
Procedure, shortened: (§1)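 IC50 values come from curve fitting of duplicate % inhibition data on AMC fluorescence (ex 380, em 460 nm) after 4 h at 22-24° C with 50 μM Z-Gly-Pro-AMC. Beforehand, peptides up to 1 μM (14 levels) sat 24 h with 0.01 nM human (26-760) or mouse (26-761) tagged FAP in phosphate buffer pH 7.5, NaCl, Tween20, 1% DMSO.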

[2] = molecular target: T1, mouse FAP; assay: Surface plasmon resonance (SPR) for peptide affinity, mouse FAP; type: binding
Procedure, shortened: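 KD values come from a 1:1 kinetic fit of single-cycle SPR data: 8 peptide concentrations, 25 °C, 30 μL/min, HEPES-buffered saline pH 7.6 with 2% DMSO. Targets were His/Avi-tagged human (26-760) or mouse (26-761) FAP, amine-coupled to CM5 or held on a CAPture chip.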

[3] = molecular target: T2, human FAP (Homo sapiens, UniProt Q12884); assay: Enzymatic FAP competition assay (Z-Gly-Pro-AMC fluorescence), human FAP; type: biochemical; conditions: read-out: h. FAP, Enz., IC50
T2 construct: the biotinylated His, Avi tag, human FAP (26-760, FAP-H82Q6); His; Avi tag (biotinylated); purchased AcroBiosystems FAP-H82Q6
T2 sequence (Q12884 26-760): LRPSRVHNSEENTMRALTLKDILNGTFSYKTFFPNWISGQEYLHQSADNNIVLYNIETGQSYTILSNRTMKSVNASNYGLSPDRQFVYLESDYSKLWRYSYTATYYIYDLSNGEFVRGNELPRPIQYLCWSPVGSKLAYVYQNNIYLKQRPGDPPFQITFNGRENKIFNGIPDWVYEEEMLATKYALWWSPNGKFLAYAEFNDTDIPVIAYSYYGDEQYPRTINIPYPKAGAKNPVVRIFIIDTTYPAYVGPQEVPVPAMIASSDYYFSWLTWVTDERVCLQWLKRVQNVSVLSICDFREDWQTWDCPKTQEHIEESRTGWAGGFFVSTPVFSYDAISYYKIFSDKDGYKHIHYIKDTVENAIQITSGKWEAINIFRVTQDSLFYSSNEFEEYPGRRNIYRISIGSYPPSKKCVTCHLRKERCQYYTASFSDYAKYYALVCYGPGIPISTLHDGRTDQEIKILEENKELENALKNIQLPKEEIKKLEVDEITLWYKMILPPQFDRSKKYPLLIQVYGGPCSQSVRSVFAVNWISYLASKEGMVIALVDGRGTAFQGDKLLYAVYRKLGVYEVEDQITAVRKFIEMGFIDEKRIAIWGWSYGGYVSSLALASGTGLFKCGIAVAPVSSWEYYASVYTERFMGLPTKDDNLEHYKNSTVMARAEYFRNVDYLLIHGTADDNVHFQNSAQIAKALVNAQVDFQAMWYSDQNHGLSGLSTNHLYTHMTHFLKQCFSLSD
Procedure, shortened: as §1

| Molecule | IC50 [1] | Kd [2] | IC50 [3] |
| --- | --- | --- | --- |
| CCCCC[C@@H]1NC(=O)[C@H](Cc2ccc(O)cc2)NC(=O)[C@H](Cc2ccccc2)N(C)C(=O)CNC(=O)[C@H](CCCCN)NC(=O)[C@H]2CCCN2C(=O)[C@H](CC(=O)O)NC(=O)[C@H](Cc2ccc(O)cc2)NC(=O)CNC(=O)[C@H](Cc2c[nH]c3c(F)cccc23)NC1=O [Example A23, Lys-Gly-NMePhe-Tyr-Ahp-W(7F)-Gly-Tyr-Asp-D-Pro, TFA salt] (cyclo([Ahp(2)][Trp(7-F)]GYD[dP]KG[NMeF]Y)) | 0.48 nM | 0.45 nM | 0.111 nM |
| CCCCC[C@@H]1NC(=O)[C@H](Cc2ccc(O)cc2)NC(=O)[C@H](Cc2ccccc2)N(C)C(=O)CNC(=O)[C@H](CCCCN)NC(=O)[C@H]2C[C@H](O)CN2C(=O)[C@H](CC(=O)O)NC(=O)[C@H](Cc2ccc(O)cc2)NC(=O)CNC(=O)[C@H](Cc2c[nH]c3ccccc23)NC1=O [Example A41, Lys-Gly-NMePhe-Tyr-Ahp-Trp-Gly-Tyr-Asp-D-trans4hyp, TFA salt] (cyclo([Ahp(2)]WGYD[dHyp]KG[NMeF]Y)) | 5.3 nM | 12 nM | 2.2 nM |
| Gly-Gly-NMePhe-F(4OEtNHRDOTAGA-Lu)-Ahp-Trp-Gly-Tyr-Asp-D-Pro (cyclo(GG[NMeF][F(4OEtNHRDOTAGA-Lu)][Ahp(2)]WGYD[dP]); also: Lu complex of DOTAGA) [Example C31] | 0.027 nM | < 0.01 nM | 0.007 nM |
| Gly-Gly-NMePhe-F(4OEtNHRDOTAGA-Ga)-Ahp-Trp-Gly-Tyr-Asp-D-Pro (cyclo(GG[NMeF][F(4OEtNHRDOTAGA-Ga)][Ahp(2)]WGYD[dP]); also: Ga complex of DOTAGA) [Example C38] | 0.048 nM | 0.037 nM | 0.012 nM |
| Gly-Gly-NMePhe-F(4OEtNHDOTA-Lu)-Ahp-Trp-Gly-K(COpipzaa)-Asp-D-Pro (cyclo(GG[NMeF][F(4OEtNHDOTA-Lu)][Ahp(2)]WG[K(COpipzaa)]D[dP]); also: Lu complex of DOTA) [Example C27] | 0.072 nM | 0.102 nM | 0.026 nM |
| CCCCC[C@@H]1NC(=O)[C@H](Cc2ccc(OCCNC(=O)CN3CCN(CC(=O)O)CCN(CC(=O)O)CCN(CC(=O)O)CC3)cc2)NC(=O)[C@H](Cc2ccccc2)N(C)C(=O)CNC(=O)CNC(=O)[C@H]2CCCN2C(=O)[C@H](CC(=O)O)NC(=O)[C@H](Cc2ccc(N)nc2)NC(=O)CNC(=O)[C@H](Cc2c[nH]c3ccccc23)NC1=O [Example B24, Gly-Gly-NMePhe-F(4OEtNHDOTA)-Ahp-Trp-Gly-3PyA(6NH2)-Asp-D-Pro, TFA salt] (cyclo([AEF](DOTA)[Ahp(2)]WG[3Pal(6-NH2)]D[dP]GG[NMeF])) | 0.108 nM | 0.066 nM | 0.012 nM |
| CCCCC[C@@H]1NC(=O)[C@H](Cc2ccc(OCCNC(=O)CN3CCN(CC(=O)O)CCN(CC(=O)O)CCN(CC(=O)O)CC3)cc2)NC(=O)[C@H](Cc2ccccc2)N(C)C(=O)CNC(=O)CNC(=O)[C@H]2CCCN2C(=O)[C@H](CC(=O)O)NC(=O)[C@H](Cc2ccc(O)cc2)NC(=O)CNC(=O)[C@H](Cc2c[nH]c3ccccc23)NC1=O [Example B23, Gly-Gly-NMePhe-F(4OEtNHDOTA)-Ahp-Trp-Gly-Tyr-Asp-D-Pro, TFA salt] (cyclo([AEF](DOTA)[Ahp(2)]WGYD[dP]GG[NMeF])) | 0.059 nM | 0.077 nM | 0.012 nM |
